In brackets after ≈: the same amount, converted by molar mass.
Legend:
E. feacalis = assay: Minimum inhibitory concentration (MIC) in vitro, agar dilution method; type: cell-based
Text: (§1) Hydrates Samples: • The 1/2 hydrates prepared according to Example 2; • Content (purity % wt): 99.0%; • The 1/12 hydrates prepared according to Example 253; • Content (purity % wt): 98.9%; • The 2/7 hydrates prepared according to Example 106; • Content (purity % wt): 98.8%; • The 2/5 hydrates prepared according to Example 162; • Content (purity % wt): 99.0%; • The 3/4 hydrates prepared according to Example 337; • Content (purity % wt): 98.8%; • Preparation: dissolved in DMSO, and further diluted with sterile distilled water to desired concentration. • The hydrates samples were supplied by Sichuan Beilike Biotechnology LTD.
(§2) Anhydrous Sample: • The anhydrous compounds prepared according to Example 1. • Content (purity % wt): 98.6%; • Preparation: dissolved in DMSO, and further diluted with sterile distilled water to desired concentration; • The anhydrous sample was supplied by Sichuan Beilike Biotechnology LTD.
(§3) Control Samples • Vancomycin: provided by Sichuan Beilike Biotechnology LTD, purchased from Eli Lilly Japan K.K. • Lot No.: WM16151 (production date: Apr. 10, 2007, expiration date: Apr. 9, 2009). • Specification: 500 mg/bottle; solubility (physicochemical properties): soluble in water. • Linezolid (LZ): provided by Sichuan Beilike Biotechnology LTD.
(§4) Bacteria Strains • Clinically isolated strains: clinically isolated bacterial pathogens collected in Sichuan and Beijing areas from March 2007 to May 2008. • Species include: Staphylococcus aureus MRSA, Staphylococcus aureus MSSA, S. epidermidis MRSE, S. epidermidis MSSE, E. feacalis, and E. feacium, a total of 51 strains. • Quality control strains: Staphylococcus aureus […] strain kept in Sichuan Industrial Institute of Antibiotics, purchased from the medical testing center of the Ministry of Health, China.
(§5) Experimental Method: • Measurement of the minimum inhibitory concentration (MIC) in vitro: • The minimum inhibitory concentration (MIC) of each test sample against test strains was measured by using the agar dilution method recommended by the U.S. National Committee for Clinical Laboratory Standards (CLSI/NCCIs).
(§6) Based on the CLSI/NCCL's testing standard with respect to vancomycin and linezolid (see Table 6), the minimum inhibitory concentration (MIC) values of every strain were reported, and the MIC50 (the concentration that inhibits 50% of the different strains of bacteria), MIC90 (the concentration that inhibits 90% of the different strains of bacteria), and MICrange (the range of the MIC value of the tested strains) were observed.

[1] = tested on: Staphylococcus aureus MRSA; assay: as above; type: cell-based; settings: S. MRSA (10 strains), clinically isolated
Text: as §1, §2, §3, §4, §5, §6

[2] = tested on: Staphylococcus aureus MSSA; assay: as above; type: cell-based; settings: S. MSSA (11 strains), clinically isolated
Text: as §1, §2, §3, §4, §5, §6

S. epidermidis MRSE = assay: as above; type: cell-based
Text: as §1, §2, §3, §4, §5, §6

E. feacium = assay: as above; type: cell-based
Text: as §1, §2, §3, §4, §5, §6

S. epidermidis MSSE = assay: as above; type: cell-based
Text: as §1, §2, §3, §4, §5, §6

[3] = Solubility in different solvents according to Chinese Pharmacopeia (2005 edition); type: physicochemical; settings: at the given solute:solvent ratio
Protocol: The solubility of the (S)—[N-3-(3′-fluoro-4′-(4″-phenylpiperazinyl))phenyl-2-oxo-5-oxazolelidinyl]methylacetamide hydrates was tested with different solvents, and the test results are shown in Tables 15-19. The solubility was measured according to Chinese Pharmacopeia (2005 edition).

[4] = E. feacalis (5 strains), clinically isolated
[5] = S. ep MRSE (10 strains), clinically isolated
[6] = E. feacium (5 strains), clinically isolated
[7] = S. ep MSSE (10 strains), clinically isolated

In the case of CC(=O)NC[C@H]1CN(c2ccc(N3CCN(c4ccccc4)CC3)c(F)c2)C(=O)O1 [Anhydrous compound], the MIC50 (E. feacalis; [4]) was 4 µg/mL (≈ 9.7 µM), the MIC90 (E. feacalis; [4]) was 8 µg/mL (≈ 19.4 µM) and the MICrange (E. feacalis; [4]) was 2 to 8 µg/mL. The MIC (E. feacalis; strain Efa 54 (Table 8 No. 20)) was 4 µg/mL (≈ 9.7 µM), the MIC (E. feacalis; strain Efa 116 (Table 8 No. 16)) was 4 µg/mL (≈ 9.7 µM) and the MIC (E. feacalis; strain Efa 907 (Table 8 No. 19)) was 2 µg/mL (≈ 4.85 µM). For the same compound, the MIC (E. feacalis; strain Efa 3006 (Table 8 No. 18)) was 4 µg/mL (≈ 9.7 µM), the MIC (E. feacalis; strain Efa 33748 (Table 8 No. 17)) was 8 µg/mL (≈ 19.4 µM) and the MIC50 [1] was 2 µg/mL (≈ 4.85 µM). The MIC90 [1] was 2 µg/mL (≈ 4.85 µM), the MICrange [1] was 1 to 2 µg/mL and the MIC50 [2] was 2 µg/mL (≈ 4.85 µM). The MIC90 [2] was 2 µg/mL (≈ 4.85 µM), the MICrange [2] was 1 to 2 µg/mL and the MIC50 (S. epidermidis MRSE; [5]) was 2 µg/mL (≈ 4.85 µM). It also gave an MIC90 (S. epidermidis MRSE; [5]) of 2 µg/mL (≈ 4.85 µM), an MICrange (S. epidermidis MRSE; [5]) of 2 µg/mL and an MIC (S. epidermidis MRSE; strain S. ep MRSE4 (Table 8 No. 9)) of 2 µg/mL (≈ 4.85 µM). It also gave an MIC (S. epidermidis MRSE; strain S. ep MRSE20 (Table 8 No. 6)) of 2 µg/mL (≈ 4.85 µM), an MIC (S. epidermidis MRSE; strain S. ep MRSE87 (Table 8 No. 13)) of 2 µg/mL (≈ 4.85 µM) and an MIC (S. epidermidis MRSE; strain S. ep MRSE90 (Table 8 No. 10)) of 2 µg/mL (≈ 4.85 µM). For the same compound, the MIC (S. epidermidis MRSE; strain S. ep MRSE101 (Table 8 No. 7)) was 2 µg/mL (≈ 4.85 µM), the MIC (S. epidermidis MRSE; strain S. ep MRSE105 (Table 8 No. 11)) was 2 µg/mL (≈ 4.85 µM) and the MIC (S. epidermidis MRSE; strain S. ep MRSE140 (Table 8 No. 14)) was 2 µg/mL (≈ 4.85 µM). For the same compound, the MIC (S. epidermidis MRSE; strain S. ep MRSE142 (Table 8 No. 12)) was 2 µg/mL (≈ 4.85 µM), the MIC (S. epidermidis MRSE; strain S. ep MRSE210 (Table 8 No. 15)) was 2 µg/mL (≈ 4.85 µM) and the MIC (S. epidermidis MRSE; strain S. ep MRSE211 (Table 8 No. 8)) was 2 µg/mL (≈ 4.85 µM). It also gave an MIC50 (E. feacium; [6]) of 4 µg/mL (≈ 9.7 µM), an MIC90 (E. feacium; [6]) of 8 µg/mL (≈ 19.4 µM) and an MICrange (E. feacium; [6]) of 2 to 8 µg/mL. The MIC (E. feacium; strain Efm 98 (Table 8 No. 21)) was 4 µg/mL (≈ 9.7 µM), the MIC (E. feacium; strain Efm 171 (Table 8 No. 25)) was 4 µg/mL (≈ 9.7 µM) and the MIC (E. feacium; strain Efm 197 (Table 8 No. 22)) was 2 µg/mL (≈ 4.85 µM). It also gave an MIC (E. feacium; strain Efm N3 (Table 8 No. 23)) of 8 µg/mL (≈ 19.4 µM), an MIC (E. feacium; strain Efm N4 (Table 8 No. 24)) of 8 µg/mL (≈ 19.4 µM) and an MIC50 (S. epidermidis MSSE; [7]) of 1 µg/mL (≈ 2.42 µM). It also gave an MIC90 (S. epidermidis MSSE; [7]) of 2 µg/mL (≈ 4.85 µM), an MICrange (S. epidermidis MSSE; [7]) of 1 to 2 µg/mL and an MIC (S. epidermidis MSSE; strain S. ep MSSE88 (Table 8 No. 5)) of 2 µg/mL (≈ 4.85 µM). For the same compound, the MIC (S. epidermidis MSSE; strain S. ep MSSE118 (Table 8 No. 2)) was 1 µg/mL (≈ 2.42 µM), the MIC (S. epidermidis MSSE; strain S. ep MSSE137 (Table 8 No. 4)) was 2 µg/mL (≈ 4.85 µM) and the MIC (S. epidermidis MSSE; strain S. ep MSSE140 (Table 8 No. 3)) was 1 µg/mL (≈ 2.42 µM). It also gave an MIC (S. epidermidis MSSE; strain S. ep MSSE153 (Table 8 No. 1)) of 2 µg/mL (≈ 4.85 µM).

For CC(=O)NC[C@H]1CN(c2ccc(N3CCN(c4ccccc4)CC3)c(F)c2)C(=O)O1 [Example 1, (S)—[N-3-(3′-fluoro-4′-(4″-phenylpiperazinyl))phenyl-2-oxo-5-oxazolidinyl]methyl acetamide], the Result ([3]; solvent 0.1N Hydrochloric acid) was “Dissolved”, the Result ([3]; solvent 0.1N Sodium hydroxide) was “Insoluble” and the Result ([3]; solvent Acetonitrile) was “Dissolved”. For the same compound, the Result ([3]; solvent Ethanol) was “Dissolved”, the Result ([3]; solvent Methanol) was “Dissolved” and the Result ([3]; solvent Water, listed as Anhydride) was “Insoluble”.

Reference: patent US8916567B2, “Certain crystalline hydrates, pharmaceutical compositions thereof and methods for preparation and use thereof” (Universal Technology Alliance, Inc., priority 2009, dated 2014)
